The results in this text go back to article PMC12755129 (Blood, 2025).

This experiment concerns the target LRRC8A (SWELL1), LRRC8 volume-regulated anion channel complex (Homo sapiens, UniProt Q8IWT6). As to the kind of experiment: patch clamp of hypotonic swell-activated VRAC/ATP currents in MEG-01 cells. Type of experiment: cell-based. A general note: Patch clamp records ionic current or voltage across a cell membrane.

Chain of LRRC8A (SWELL1), LRRC8 volume-regulated anion channel complex (Q8IWT6 whole entry): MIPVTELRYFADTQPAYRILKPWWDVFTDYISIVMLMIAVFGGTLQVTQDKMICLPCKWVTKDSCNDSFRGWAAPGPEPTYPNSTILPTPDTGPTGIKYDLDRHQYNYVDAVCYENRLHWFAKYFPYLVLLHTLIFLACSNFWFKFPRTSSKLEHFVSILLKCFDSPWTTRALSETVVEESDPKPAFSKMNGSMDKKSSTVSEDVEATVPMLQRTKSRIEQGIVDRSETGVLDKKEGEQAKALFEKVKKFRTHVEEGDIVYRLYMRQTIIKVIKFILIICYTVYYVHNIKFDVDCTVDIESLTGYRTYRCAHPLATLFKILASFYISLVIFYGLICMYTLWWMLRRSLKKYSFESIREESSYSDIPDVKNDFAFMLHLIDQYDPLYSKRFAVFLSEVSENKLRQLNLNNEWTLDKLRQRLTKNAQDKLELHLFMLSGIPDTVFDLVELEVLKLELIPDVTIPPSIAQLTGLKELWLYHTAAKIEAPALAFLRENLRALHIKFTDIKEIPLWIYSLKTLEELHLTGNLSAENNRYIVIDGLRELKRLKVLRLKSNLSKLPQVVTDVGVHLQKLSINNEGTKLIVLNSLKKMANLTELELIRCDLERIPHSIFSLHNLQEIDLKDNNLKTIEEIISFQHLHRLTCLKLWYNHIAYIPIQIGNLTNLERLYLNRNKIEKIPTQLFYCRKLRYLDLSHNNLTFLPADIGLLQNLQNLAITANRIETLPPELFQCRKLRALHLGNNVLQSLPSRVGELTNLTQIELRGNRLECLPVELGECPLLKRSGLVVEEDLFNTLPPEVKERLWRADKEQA
Chain of LRRC8A (SWELL1), LRRC8 volume-regulated anion channel complex (Q6P9F7 whole entry partner): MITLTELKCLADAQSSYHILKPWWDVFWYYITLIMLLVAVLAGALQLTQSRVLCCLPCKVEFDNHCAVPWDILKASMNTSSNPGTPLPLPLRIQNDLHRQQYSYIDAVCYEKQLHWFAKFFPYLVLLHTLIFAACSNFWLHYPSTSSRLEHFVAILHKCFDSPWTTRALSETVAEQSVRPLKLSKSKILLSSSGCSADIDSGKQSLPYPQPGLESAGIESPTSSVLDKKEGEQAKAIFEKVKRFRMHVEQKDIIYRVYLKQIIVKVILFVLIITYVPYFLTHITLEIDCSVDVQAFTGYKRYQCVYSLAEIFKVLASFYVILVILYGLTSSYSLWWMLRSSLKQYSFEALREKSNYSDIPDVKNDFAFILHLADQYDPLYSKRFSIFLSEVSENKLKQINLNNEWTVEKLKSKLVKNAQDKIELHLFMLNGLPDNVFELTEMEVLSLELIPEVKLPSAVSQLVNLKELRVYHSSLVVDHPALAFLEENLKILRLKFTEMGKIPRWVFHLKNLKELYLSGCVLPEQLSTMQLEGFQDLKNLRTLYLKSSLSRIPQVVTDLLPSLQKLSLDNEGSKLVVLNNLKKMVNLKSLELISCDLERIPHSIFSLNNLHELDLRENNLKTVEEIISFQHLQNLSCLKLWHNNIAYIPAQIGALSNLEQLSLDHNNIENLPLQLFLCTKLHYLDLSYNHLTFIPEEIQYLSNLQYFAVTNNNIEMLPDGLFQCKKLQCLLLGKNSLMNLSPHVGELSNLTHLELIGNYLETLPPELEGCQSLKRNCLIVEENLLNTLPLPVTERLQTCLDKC
Chain of LRRC8A (SWELL1), LRRC8 volume-regulated anion channel complex (Q8TDW0 whole entry partner): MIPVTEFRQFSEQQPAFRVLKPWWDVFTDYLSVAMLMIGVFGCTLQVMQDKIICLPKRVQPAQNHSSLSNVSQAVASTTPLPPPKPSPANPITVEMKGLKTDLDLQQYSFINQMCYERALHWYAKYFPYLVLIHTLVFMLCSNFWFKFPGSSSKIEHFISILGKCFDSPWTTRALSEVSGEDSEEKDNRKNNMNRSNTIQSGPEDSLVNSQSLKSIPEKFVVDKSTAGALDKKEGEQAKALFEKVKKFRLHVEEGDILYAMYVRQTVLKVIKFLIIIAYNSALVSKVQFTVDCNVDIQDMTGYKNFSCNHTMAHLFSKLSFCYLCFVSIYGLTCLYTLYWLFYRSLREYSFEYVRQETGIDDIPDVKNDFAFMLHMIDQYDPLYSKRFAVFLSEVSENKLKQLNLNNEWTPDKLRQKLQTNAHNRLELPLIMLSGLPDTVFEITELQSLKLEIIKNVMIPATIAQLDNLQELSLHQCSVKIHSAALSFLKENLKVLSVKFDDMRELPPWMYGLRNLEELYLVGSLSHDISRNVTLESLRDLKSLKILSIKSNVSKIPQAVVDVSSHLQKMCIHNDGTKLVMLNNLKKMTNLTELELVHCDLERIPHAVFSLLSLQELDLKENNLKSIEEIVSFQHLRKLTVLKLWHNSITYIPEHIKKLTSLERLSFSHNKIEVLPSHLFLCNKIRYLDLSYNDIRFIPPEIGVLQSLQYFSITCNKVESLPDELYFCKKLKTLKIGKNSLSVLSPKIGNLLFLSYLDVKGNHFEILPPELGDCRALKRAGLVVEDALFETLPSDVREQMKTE
Chain of LRRC8A (SWELL1), LRRC8 volume-regulated anion channel complex (Q7L1W4 whole entry partner): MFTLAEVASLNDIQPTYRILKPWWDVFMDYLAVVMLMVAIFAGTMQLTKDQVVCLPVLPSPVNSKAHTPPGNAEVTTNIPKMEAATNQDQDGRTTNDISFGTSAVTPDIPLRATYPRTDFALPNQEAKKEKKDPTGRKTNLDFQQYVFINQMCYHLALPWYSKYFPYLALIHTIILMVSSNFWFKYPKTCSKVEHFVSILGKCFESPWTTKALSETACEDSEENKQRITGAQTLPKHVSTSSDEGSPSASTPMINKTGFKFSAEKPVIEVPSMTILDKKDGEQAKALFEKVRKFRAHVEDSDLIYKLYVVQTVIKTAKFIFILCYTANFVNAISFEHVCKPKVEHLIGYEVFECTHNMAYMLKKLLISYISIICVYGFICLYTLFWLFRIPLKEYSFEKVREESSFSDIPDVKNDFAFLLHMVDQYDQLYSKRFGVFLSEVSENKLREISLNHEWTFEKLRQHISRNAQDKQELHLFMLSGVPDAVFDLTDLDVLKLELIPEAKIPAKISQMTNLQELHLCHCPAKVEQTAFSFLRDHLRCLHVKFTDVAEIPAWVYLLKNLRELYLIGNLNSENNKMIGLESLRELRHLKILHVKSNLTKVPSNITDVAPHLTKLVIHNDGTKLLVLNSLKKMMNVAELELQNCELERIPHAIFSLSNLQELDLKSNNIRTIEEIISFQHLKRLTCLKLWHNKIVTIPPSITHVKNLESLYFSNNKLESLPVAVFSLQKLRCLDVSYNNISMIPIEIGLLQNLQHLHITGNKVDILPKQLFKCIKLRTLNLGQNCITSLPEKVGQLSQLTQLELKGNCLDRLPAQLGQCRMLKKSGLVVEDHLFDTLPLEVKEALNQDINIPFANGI

The molecule `CCCCC1(C2CCCC2)Cc2cc(OCCCC(=O)O)c(Cl)c(Cl)c2C1=O` (centres unmarked) [SN-401, 4-(2-butyl-6,7-dichloro-2-cyclopentylindan-1-on-5-yl)oxybutyric acid] displayed an IC50 of 1.5 µM. Regarding SN-406, the midpoint of inhibition, the IC50, lay at 1 µM.

Usually IC50 stands for the concentration that inhibits the measured activity by half.
